{"source": "patent US20250114313A1", "about": "“OLIGO-BENZAMIDE ANALOGS AND THEIR USE IN CANCER TREATMENT” (BOARD OF REGENTS, THE UNIVERSITY OF TEXAS SYSTEM, priority 2022, published 2025)", "key": {"[1]": {"system": "normal human mammary epithelial cells (HMEC)", "assay": "Cell viability (WST, MTT, CellTiter-Glo), HMEC", "assay_type": "cell-based", "settings": "at >1 μM, MTT or CellTiter-Glo", "description": "Cell viability assays: Cells were seeded in 96-well plates (2×10^3 cells/well) one day before the treatment. Cells were treated with varying concentrations of ERX-41 or ERX-11 analogs for 3-6 days. Then effects of ERX-41 or ERX-11 analogs on cell viability were measured in triplicate or sextuplicate with multiple biological replicates using the WST-1 (Promega), MTT as previously described^33 or CellTiter-Glo 2.0 (Promega) assays."}, "[2]": {"system": "HSPA5, DDIT3, sXBP1 mRNA in TNBC cells", "assay": "RT-qPCR of ER stress / UPR genes, TNBC cells", "assay_type": "cell-based, Human", "description": "Real-time quantitative PCR (RT-qPCR): Total RNA was prepared from breast cancer cells using the RNeasy Mini Kit (Qiagen) according to the manufacturer protocols. Subsequently, total RNAs were reverse transcribed into cDNA using iScript Reverse Transcription Supermix (Bio-rad) and by using SYBR Green on an Illumina Real-Time PCR system."}, "SUM-159 cells": {"system": "SUM-159 cells", "assay": "Airyscan / live cell confocal imaging of ER tubule width, SUM-159 mCherry-RAMP4", "assay_type": "cell-based, Human", "description": "Live cell confocal and Airyscan imaging: To visualize ER structure, stable SUM-159 cell lines expressing mCherry-RAMP4 were established. pLenti-X1-hygro-mCherry-RAMP4 was purchased from Addgene (Addgene #118391; //n2t.net/addgene:118391; RRID:Addgene_118391) (via Jacob Corn).^35 The live cell images were acquired by Confocal Zeiss LSM880 Airyscan. ER tubule width was calculated by drawing 1px-wide line scans perpendicular to the long axis of individual ER tubules. In MATLAB, the peak intensity along each line scan was determined and the distance between the half maximum intensity on either side of the peak was measured. The code for this analysis is available at: //github.com/andmoo91/HalfMaxScript."}, "vinculin": {"target": "T1, vinculin (Homo sapiens, UniProt P18206)", "T1 construct": "heat stability of LAL or vinculin protein in SUM-159 cells; endogenous in cells; host or cells: SUM-159", "T1 sequence (P18206 1-1066 isoform P18206-2)": "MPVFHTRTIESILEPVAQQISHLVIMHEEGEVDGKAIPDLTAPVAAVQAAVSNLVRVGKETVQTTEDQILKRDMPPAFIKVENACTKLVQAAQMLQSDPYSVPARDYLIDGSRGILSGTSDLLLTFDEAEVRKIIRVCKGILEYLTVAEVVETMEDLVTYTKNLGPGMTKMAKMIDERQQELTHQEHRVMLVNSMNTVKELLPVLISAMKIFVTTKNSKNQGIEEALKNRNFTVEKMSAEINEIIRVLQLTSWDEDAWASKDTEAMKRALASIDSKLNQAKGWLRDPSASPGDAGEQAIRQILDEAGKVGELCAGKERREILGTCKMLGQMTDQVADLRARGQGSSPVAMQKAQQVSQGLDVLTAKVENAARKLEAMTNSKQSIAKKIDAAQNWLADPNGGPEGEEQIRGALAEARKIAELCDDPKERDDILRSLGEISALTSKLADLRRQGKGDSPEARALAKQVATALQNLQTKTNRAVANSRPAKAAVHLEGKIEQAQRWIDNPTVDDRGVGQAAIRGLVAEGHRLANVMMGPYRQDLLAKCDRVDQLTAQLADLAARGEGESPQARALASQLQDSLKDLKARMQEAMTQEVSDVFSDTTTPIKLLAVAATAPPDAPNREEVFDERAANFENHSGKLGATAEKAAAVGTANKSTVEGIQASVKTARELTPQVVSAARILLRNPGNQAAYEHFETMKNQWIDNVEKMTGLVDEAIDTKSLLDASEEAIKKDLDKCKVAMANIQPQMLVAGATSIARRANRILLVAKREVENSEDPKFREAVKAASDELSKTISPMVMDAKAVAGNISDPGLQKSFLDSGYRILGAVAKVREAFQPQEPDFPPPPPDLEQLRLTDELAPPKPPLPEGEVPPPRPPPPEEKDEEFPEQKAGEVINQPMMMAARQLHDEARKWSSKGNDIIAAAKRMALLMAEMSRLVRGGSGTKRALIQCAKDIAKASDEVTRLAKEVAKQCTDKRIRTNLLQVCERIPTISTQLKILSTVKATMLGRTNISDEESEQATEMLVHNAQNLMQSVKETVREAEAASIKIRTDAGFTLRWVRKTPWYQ", "assay": "Cellular thermal shift assay, vinculin", "assay_type": "binding", "settings": "10 μM, SUM-159 cells", "description": "Cellular Thermal Shift Assay (CETSA): Cellular Thermal Shift Assays were performed as described previously^36. Briefly, cells were treated with DMSO or 10 μM ERX-41 for 30 min, then trypsinized, pelleted and resuspended in PBS supplemented with Halt protease inhibitor cocktail (Thermo Scientific), with DMSO or 10 μM ERX-41. Resuspended cells were aliquoted into PCR strips. The cells were incubated in thermal cycler (Bio-rad) at gradient temperatures for 3 minutes, followed by incubation at 25° C. for 3 minutes. Then cells were snap-frozen in liquid nitrogen. Freeze-thaw the cells twice using liquid nitrogen. Then transfer samples into Eppendorf tubes, followed by briefly vortex and centrifuge at 20,000 g for 20 minutes at 4° C. Mix cleared cell lysates with ⅓ volume of 4× Laemmli sample buffer. After boiling, cell lysates were resolved in SDS-PAGE followed by western blotting."}, "Sum159 cells": {"system": "Sum159 cells", "assay": "DIA-MS of whole cell lysates", "assay_type": "cell-based, Human", "settings": "500 nM, 6 h", "description": "Mass spectrometry based DIA analyses of whole cell lysates: Sum159 cells were treated with vehicle or ERX-41 (500 nM). After 6 h of treatment, cells were pelleted and snap-frozen and then lysed in buffer containing 5% SDS/50 mM triethylammonium bicarbonate (TEAB) in the presence of protease and phosphatase inhibitors (Halt; Thermo Scientific) and nuclease (Pierce™ Universal Nuclease for Cell Lysis; Thermo Scientific). Aliquots corresponding to 100 μg protein (EZQ™ Protein Quantitation Kit; Thermo Scientific) were reduced with tris (2-carboxyethyl)phosphine hydrochloride (TCEP), alkylated in the dark with iodoacetamide and applied to S-Traps (mini; Protifi) for tryptic digestion (sequencing grade; Promega) in 50 mM triethylammonium bicarbonate (TEAB). Peptides were eluted from the S-Traps with 0.2% formic acid in 50% aqueous acetonitrile and quantified using Pierce™ Quantitative Fluorometric Peptide Assay (Thermo Scientific). Data-independent acquisition mass spectrometry (DIA-MS) was conducted on an Orbitrap Fusion Lumos mass spectrometer (Thermo Scientific). On-line HPLC separation was accomplished with an RSLC NANO HPLC system (Thermo Scientific/Dionex: column, PicoFrit™ (New Objective; 75 μm i.d.) packed to 15 cm with C18 adsorbent (Vydac; 218MS 5 μm, 300 Å); mobile phase A, 0.5% acetic acid (HAc)/0.005% trifluoroacetic acid (TFA) in water, mobile phase B, 90% acetonitrile/0.5% HAc/0.005% TFA/9.5% water; gradient 3 to 42% B in 120 min; flow rate, 0.4 μl/min. A pool was made of the 6 samples (three replicates from each group), and 2-μg peptide aliquots were analyzed using gas-phase fractionation and 4-m/z windows (30k resolution for precursor and product ion scans, all in the orbitrap) to create a DIA chromatogram library^40 by searching against a Prosit-generated predicted spectral library^41 based on the UniProt_human_20191022 protein sequence database. Experimental samples were blocked by replicate and randomized within each replicate for sample preparation and analysis; injections of 2 μg of peptides and a 2-h HPLC gradient were employed. […]"}, "[3]": {"settings": "parental SUM-159, 1 μM, from ~200 nm"}}, "note": "Entries after “also recorded” stand apart in the source; their conditions may differ."}
{"smiles": "CC(C)COc1cc(C(=O)Nc2ccc(C(=O)N[C@H]3CC[C@H](C)CC3)cc2OCC(C)C)ccc1NC(=O)c1ccc([N+](=O)[O-])c(OCCO)c1", "note": "[ERX-41]", "values": [{"measurement": "effect on normal human mammary epithelial cells", "setting": "[1]", "value": "non-toxic; also recorded: did not have significant effect"}, {"measurement": "upregulation of HSPA5, DDIT3, sXBP1 mRNA", "setting": "[2]; 1 μM, TNBC cells", "value": "60-80 fold"}, {"measurement": "expression of sXBP1 and DDIT3, parental SUM-159", "setting": "[2]; RT-qPCR, parental SUM-159 cells", "value": "induces expression of UPR genes sXBP1 and DDIT3"}, {"measurement": "ER tubule width, mean±S.D., airyscan", "setting": "SUM-159 cells; 1 μM, 2 h, 0 h = 260±80 nm", "value": "660±320", "unit": "nm"}, {"measurement": "measured ER dilation following treatment", "setting": "SUM-159 cells; discussion", "value": "~600", "unit": "nm"}, {"measurement": "ER tubule diameter, live cell confocal, 2 h", "setting": "SUM-159 cells; [3]", "value": "~500", "unit": "nm"}, {"measurement": "ER tubule diameter, live cell confocal, 4 h", "setting": "SUM-159 cells; [3]", "value": "~620", "unit": "nm"}, {"measurement": "thermal stability of vinculin", "setting": "vinculin", "value": "did not affect vinculin thermal stability"}, {"measurement": "number of cellular proteins with significantly affected expression", "setting": "Sum159 cells", "value": 189}, {"measurement": "number of down-regulated proteins", "setting": "Sum159 cells", "value": 153}, {"measurement": "number of up-regulated proteins", "setting": "Sum159 cells", "value": 36}]}
